# According to US20120136005A1, “E[…] THE TREATMENT OF ANXIETY” (MERZ PHARMA GmbH & CO. KGaA, priority 2009, published 2012):
# “Also recorded” adds a separate entry of the source.
# Key:
# Wistar rats = assay: Shock-suppressed drinking (Vogel) test; format: in vivo; details: acute s.c., 30 min before the test; not statistically significant; FIG. 7
# Protocol: For contextual fear conditioning, open field, fear potentiated startle and elevate plus maze, experimentally naive adult male Sprague-Dawley rats (250-300 g; Janvier, France) were housed in groups of four per cage. Colony room temperature and humidity were maintained respectively at 20±1° C. and 60±3%. Food and water were available ad libitum and the animals were kept under an alternating 12 h/12 h day-night cycle (lights on at 07.00) for at least 6 days before the experiments were started. All experiments were conducted during the light period of the day-night cycle. For the Vogel test, male experimentally naive Wistar rats (180-220 g, State Breeding Farm “Rappolovo”, St. Petersburg, Russia; N=109) were used. Each animal was used only once.
# Eltoprazine hydrochloride was dissolved in sterile water. Administration of eltoprazine or vehicle (sterile water) was done s.c. (0.078 to 1.25 mg/kg) once, 60 minutes (30 min in the Vogel test) prior to start of the behavioural assay.
# The apparatus consisted of 4 identical standard operant chambers with grid metal floor. Water bottle spout was protruded through the wall and connected to a shock device. […] Latency to start drinking was registered, and total drinking time and the licks number were recorded during 5 min timed from the first lick of the bottle spout. […]
# [1] = tested on: unilaterally 6-OHDA-lesioned rats; assay: L-DOPA induced dyskinesia (AIM scores) in 6-OHDA-lesioned rat model of Parkinson's disease; format: in vivo, Sprague Dawley rats; details: eltoprazine hydrochloride 0.08, 0.3, 1.25 and 5 mg/kg s.c.; after 21 days of L-DOPA; dose-dependent; FIG. 2
# Protocol: (§1) Male Sprague Dawley rats (Elevage Janvier, Le Genest Saint Isle, France) weighing between 220 and 250 g at the beginning of the study are used in these experiments. They are housed under a 12 h light/dark cycle with free access to standard pelleted food and tap water. Animal treatment and experimental procedures are approved by local ethical committees (Regierungspräsidium Darmstadt; Germany).
# (§2) Dopamine-denervating lesions are performed on rats anaesthetized with a 5:1 mixture of ketamine and xylazine (1 ml/kg, i.p.). […] The animals' turning behaviour is recorded in an automated rotometer (TSE Rotameter System, TSE-Systems GmbH, Bad Homburg, Germany) over a 90 min period after the intraperitoneal (i.p.) injection of 2.5 mg/kg dexamphetamine sulphate dissolved in saline. […]
# In order to evaluate the severity of LID, AIMs are recorded every second day as described by Cenci et al. (1998). […] Each rat is scored on a severity scale from 0 to 4 based on its frequency and persistence (1=occasional; 2=frequent; 3=continuous but interrupted by sensory distraction; 4=continuous, severe and not interrupted by sensory distraction). […]
# [2] = tested on: 5-HT2c (initially designated 5-HT1c); details: Schipper et al. 1990; cited from earlier work
# [3] = tested on: unilaterally 6-OHDA-lesioned rats; assay: Turning behaviour induced by high dose of L-DOPA in 6-OHDA-lesioned rats; format: in vivo, Sprague Dawley rats; details: 0.3, 1.25 and 5 mg/kg, 30 min before the test; FIG. 3
# Protocol: as §1, §2
# In order to evaluate the effect of eltoprazine on parkinsonian symptoms and its interaction with L-DOPA, rotational behaviour is evaluated. The numbers of ipsilateral and contralateral turns are recorded in an automated rotometer (TSE Rotameter System, TSE-Systems GmbH, Bad Homburg, Germany) over a period of 180 min. […]
smiles,measurement,setting,value
"c1cc2c(c(N3CCNCC3)c1)OCCO2 [eltoprazine, 1-(2,3-dihydro-1,4-benzodioxin-5-yl)piperazine]",number of accepted punishments (shocks received) in the Vogel test,Wistar rats,tendency to increase; also recorded: trend for anxiolytic activity
same,effect on AIM scores,[1],significantly reverses
same,effect on 5-HT2c,[2],antagonistic
same,interference with the antiparkinsonian effect of L-DOPA (turning behaviour),[3],does not interfere
